Data reported in patent US12414953B2, “Selective inhibitors of protein arginine methyltransferase 5 (PRMT5)” (Prelude Therapeutics, Incorporated, priority 2019, dated 2025).

Key:
U-87 MG cells = assay: Cell proliferation assay (CCK-8, day 10); assay type: cell-based; conditions: Homo sapiens, 240 h, U-87 MG cell line, read-out: Prolif. IC50
Method: One day before experiment, Granta-519 cells were passaged to a density of 0.5×10^6 cells/ml. U-87 MG cells were trypsinized and 2,000 cells were seeded into 96-well plates and allowed to grow overnight. On the day of experiment (day 0), Granta-519 Cells were spun down at 1,500 rpm for 4 min, resuspended in fresh medium to 0.5×10^6 cells/ml and 190 μL of cells were added to 96 well plates. For U-87 MG cells, old medium was removed and replaced with 190 uL fresh medium. Compound working stocks were first diluted at 1:50 with fresh medium in 96 well plate and 10 μL of diluted drugs were added to 96 well plates containing cells and incubated for 3 days. DMSO was used a vehicle control.
One day 3, 50 μL of Granta-519 cells were transferred to a new 96-well plate and 140 uL fresh medium was added. […]
On day 10, 100 μL Granta-519 cells were transferred to a new 96 well plate and 10 μL of Cell Counting Kit-8 (CCK-8, Jojindo, CK04-13) solution was added. […] Plates were incubated in CO2 incubator for 2 hours (Granta-519 cells) or 30 min (U-87 MG cells) and OD450 values were measured with a microplate reader (iMark microplate reader, Bio-Rad). Percentage of viable cells, relative to DMSO vehicle control, were calculated and plotted in Graphpad Prism ([Inhibitor] vs. normalized response−Variable slope) to determine proliferation IC50 values on day 10. […]

[1] = Solubility of HCl salt in solvents, saturated solution analyzed by HPLC; assay type: physicochemical; conditions: thermodynamic from solid; for solubility: 21 °C, 21 ± 1° C.; for solubility at 24 hr: 50 °C, 50 ± 1° C.
Method: (§1) 3 mL of the tested solvent was added to a 4 mL of vial. Formula IA was added until a cloudy solution was obtained at 21±1° C. About 30 mg additional Formula IA was added to the cloudy solution. The mixture was agitated at 21±1° C. for a weekend, during which the temperature was controlled by IKA® ETS-D5 temperature controller and IKA® RCT basic safety control. The mixture was filtered using a syringe filter (PTFE, […], 13 mm, Agela Technologies Inc.). The satuatred solution was transferred into an HPLC vial, diluted with methanol, and analyzed by HPLC.
as §1, with “2 mL” for “3 mL”, “at 50±1°” for “at 21±1°”, “for 24 hr,” for “for a weekend,”, “The saturated” for “The satuatred”

[2] = organic solvent or mixture, EtOAc
[3] = organic solvent or mixture, EtOH
[4] = organic solvent or mixture, IPA
[5] = organic solvent or mixture, IPAc
[6] = organic solvent or mixture, MeCN
[7] = organic solvent or mixture, Methanol

For Cc1ncnc2c1ccn2[C@@H]1O[C@H]([C@@H]2OCCc3cc(Cl)ccc32)[C@@H](O)[C@H]1O [Formula I, (2S,3S,4R,5R)-2-((R)-6-chloroisochroman-1-yl)-5-(4-methyl-7H-pyrrolo[2,3-d]pyrimidin-7-yl)tetrahydrofuran-3,4-diol], the IC50 (U-87 MG cells) was 54 nM.
Compound Cc1ncnc2c1ccn2[C@@H]1O[C@H]([C@@H]2OCCc3cc(Cl)ccc32)[C@@H](O)[C@H]1O [Formula IA, (2S,3S,4R,5R)-2-((R)-6-chloroisochroman-1-yl)-5-(4-methyl-7H-pyrrolo[2,3-d]pyrimidin-7-yl)tetrahydrofuran-3,4-diol] has a solubility [1, 2] of 120 µg/mL, a solubility [1, 3] of 7640 µg/mL and a solubility [1, 4] of 960 µg/mL. For the same compound, the solubility [1, 5] was 160 µg/mL, the solubility [1, 6] was 690 µg/mL and the solubility [1, 7] was greater than 50000 µg/mL. It also gave a solubility ([1]; Water) of 14700 µg/mL, a solubility at 24 hr [1, 2] of 160 µg/mL and a solubility at 24 hr [1, 3] of 10800 µg/mL. For the same compound, the solubility at 24 hr [1, 4] was 1990 µg/mL, the solubility at 24 hr [1, 5] was 240 µg/mL and the solubility at 24 hr [1, 6] was 1050 µg/mL. The solubility at 24 hr [1, 7] was greater than 50000 µg/mL and the solubility at 24 hr ([1]; Water) was 43800 µg/mL.
